Results reported in article PMC10291282, “Synthesis, ADMT prediction, and in vitro and in silico α-glucosidase inhibition evaluations of new quinoline–quinazolinone–thioacetamides” (RSC Advances, 2023).
Where two headings read alike, the source gives them in different places.

Assays:
α-glucosidase [1] = molecular target: T1, α-glucosidase (Saccharomyces cerevisiae, UniProt P53341); assay: biochemical; format: biochemical; conditions: for anti-α-glucosidase activity in words: in comparison to acarbose; for decrease of inhibitory activity relative to compound 9g: replacement or removal of 4-OH of 9g
T1 construct: purchased Sigma-Aldrich
Procedure: Yeast form of α-glucosidase (EC3.2.1.20, Saccharomyces cerevisiae, 20 U mg^−1) and p-nitrophenyl glucopyranoside as substrate were purchased from Sigma-Aldrich. […] IC50 values were calculated by the percentage of enzyme inhibition and non-linear regression curve using the logit method.

α-glucosidase [2] = molecular target: T1, α-glucosidase; assay: Enzyme kinetics study for α-glucosidase inhibition; format: biochemical
Procedure: The 20 μL of α-glucosidase solution (1 U mL^−1) was incubated with different concentrations of compound 9g (0, 2.25, 4.5, and 9 μM) for 15 min at 30 °C. After that, the enzymatic reaction was started by adding different concentrations of p-nitrophenyl glucopyranoside (substrate, 1–4 mM), and change in absorbance was measured for 20 min at 405 nm by spectrophotometer (Gen5, Power Wave xs2, BioTek, America).

α-glucosidase [3] = assay: Literature α-glucosidase inhibition of quinoline template A; format: biochemical; conditions: template A vs acarbose of that study
α-glucosidase [4] = conditions: read-out: IC50 against α-glucosidase; Fig. 1, template A study; cited from earlier work
α-glucosidase [5] = molecular target: α-glucosidase; set-up: method as in PMID 28110817; conditions: Fig. 1, template B study; read-out: IC50 against α-glucosidase; cited from earlier work
[6] = yeast α-glucosidase, p-nitrophenyl glucopyranoside substrate, pH 6.8, 37 °C, mean ± SD, read-out: IC50 against α-glucosidase

T1 sequence (P53341 whole entry): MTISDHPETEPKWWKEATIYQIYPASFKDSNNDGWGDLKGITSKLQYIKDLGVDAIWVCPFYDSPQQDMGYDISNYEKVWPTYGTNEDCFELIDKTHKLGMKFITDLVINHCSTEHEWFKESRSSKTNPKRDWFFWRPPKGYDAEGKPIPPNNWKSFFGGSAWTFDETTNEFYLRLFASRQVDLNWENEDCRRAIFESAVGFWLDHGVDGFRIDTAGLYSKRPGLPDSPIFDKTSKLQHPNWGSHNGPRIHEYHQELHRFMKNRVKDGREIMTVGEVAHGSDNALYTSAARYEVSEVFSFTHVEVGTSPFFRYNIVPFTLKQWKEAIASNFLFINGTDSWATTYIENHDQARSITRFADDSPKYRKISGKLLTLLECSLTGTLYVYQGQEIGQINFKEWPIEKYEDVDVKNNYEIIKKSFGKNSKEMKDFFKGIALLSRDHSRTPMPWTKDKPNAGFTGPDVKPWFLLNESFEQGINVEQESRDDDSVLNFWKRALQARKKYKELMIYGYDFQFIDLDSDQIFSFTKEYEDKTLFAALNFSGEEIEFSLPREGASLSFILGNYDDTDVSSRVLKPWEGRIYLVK

Compound | anti-α-glucosidase activity in words (α-glucosidase [1]) | IC50 (α-glucosidase [1]; [6]) [µM] | melting point [°C] | also measured
O=C(CSc1nc2ccccc2cc1-c1nc2ccccc2c(=O)[nH]1)Nc1ccccc1 [9a, 2-{[3-(4-Oxo-3,4-dihydroquinazolin-2-yl)quinolin-2-yl]thio}-N-phenylacetamide] | potent members | 25.8 ± 0.6 | 200 to 202 | decrease of inhibitory activity relative to compound 9g (α-glucosidase [1]): 2.8 fold
Cc1ccc(NC(=O)CSc2nc3ccccc3cc2-c2nc3ccccc3c(=O)[nH]2)cc1 [9b, 2-{[3-(4-Oxo-3,4-dihydroquinazolin-2-yl)quinolin-2-yl]thio}-N-(p-tolyl)acetamide] | – | > 750 | 203 to 205 | –
Cc1cccc(NC(=O)CSc2nc3ccccc3cc2-c2nc3ccccc3c(=O)[nH]2)c1C [9c, N-(2,3-Dimethylphenyl)-2-{[3-(4-oxo-3,4-dihydroquinazolin-2-yl)quinolin-2-yl]thio}acetamide] | – | > 750 | 208 to 210 | –
Cc1cccc(C)c1NC(=O)CSc1nc2ccccc2cc1-c1nc2ccccc2c(=O)[nH]1 [9d, N-(2,6-Dimethylphenyl)-2-{[3-(4-oxo-3,4-dihydroquinazolin-2-yl)quinolin-2-yl]thio}acetamide] | – | > 750 | 220 to 222 | –
CCc1ccc(NC(=O)CSc2nc3ccccc3cc2-c2nc3ccccc3c(=O)[nH]2)cc1 [9e, N-(4-Ethylphenyl)-2-{[3-(4-oxo-3,4-dihydroquinazolin-2-yl)quinolin-2-yl]thio}acetamide] | – | > 750 | 208 to 210 | –
COc1ccc(NC(=O)CSc2nc3ccccc3cc2-c2nc3ccccc3c(=O)[nH]2)cc1 [9f, N-(4-Methoxyphenyl)-2-{[3-(4-oxo-3,4-dihydroquinazolin-2-yl)quinolin-2-yl]thio}acetamide] | potent members | – | 203 to 205 | IC50 (α-glucosidase [1]): 37.7 ± 2.9 µM; decrease of inhibitory activity relative to compound 9g (α-glucosidase [1]): 4.1 fold
O=C(CSc1nc2ccccc2cc1-c1nc2ccccc2c(=O)[nH]1)Nc1ccc(O)cc1 [9g, N-(4-Hydroxyphenyl)-2-{[3-(4-oxo-3,4-dihydroquinazolin-2-yl)quinolin-2-yl]thio}acetamide] | potent members | 9 ± 0.3 | 210 to 212 | fold more potent than the most potent compound among template compounds C (α-glucosidase [1]; comparison with literature compounds C): 8.8 fold; type of inhibition (α-glucosidase [2]; Lineweaver–Burk plots): competitive; Ki (α-glucosidase [2]; secondary re-plot of Lineweaver–Burk plots, 0, 2.25, 4.5, 9.0 μM inhibitor): 7 µM
O=C(CSc1nc2ccccc2cc1-c1nc2ccccc2c(=O)[nH]1)Nc1ccccc1F [9h, N-(2-Fluorophenyl)-2-{[3-(4-oxo-3,4-dihydroquinazolin-2-yl)quinolin-2-yl]thio}acetamide] | eradicated inhibitory activity | > 750 | 209 to 211 | –
O=C(CSc1nc2ccccc2cc1-c1nc2ccccc2c(=O)[nH]1)Nc1ccc(F)cc1 [9i, N-(4-Fluorophenyl)-2-{[3-(4-oxo-3,4-dihydroquinazolin-2-yl)quinolin-2-yl]thio}acetamide] | eradicated inhibitory activity | > 750 | 206 to 208 | –
O=C(CSc1nc2ccccc2cc1-c1nc2ccccc2c(=O)[nH]1)Nc1cccc(Cl)c1 [9j, N-(3-Chlorophenyl)-2-{[3-(4-oxo-3,4-dihydroquinazolin-2-yl)quinolin-2-yl]thio}acetamide] | potent members | 53.4 ± 2.3 | 212 to 214 | –
O=C(CSc1nc2ccccc2cc1-c1nc2ccccc2c(=O)[nH]1)Nc1ccc(Cl)cc1 [9k, N-(4-Chlorophenyl)-2-{[3-(4-oxo-3,4-dihydroquinazolin-2-yl)quinolin-2-yl]thio}acetamide] | potent members | 40.1 ± 1.2 | 209 to 211 | –
O=C(CSc1nc2ccccc2cc1-c1nc2ccccc2c(=O)[nH]1)Nc1ccc(Br)cc1 [9l, N-(4-Bromophenyl)-2-{[3-(4-oxo-3,4-dihydroquinazolin-2-yl)quinolin-2-yl]thio}acetamide] | eradicated inhibitory activity | > 750 | 208 to 210 | –
O=C(CSc1nc2ccccc2cc1-c1nc2ccccc2c(=O)[nH]1)Nc1ccc([N+](=O)[O-])cc1 [9m, N-(4-Nitrophenyl)-2-{[3-(4-oxo-3,4-dihydroquinazolin-2-yl)quinolin-2-yl]thio}acetamide] | potent members | 52 ± 1.4 | 217 to 219 | –
O=C(CSc1nc2ccccc2cc1-c1nc2ccccc2c(=O)[nH]1)NCc1ccccc1 [9n, N-Benzyl-2-{[3-(4-oxo-3,4-dihydroquinazolin-2-yl)quinolin-2-yl]thio}acetamide] | – | > 750 | 201 to 203 | –
Cc1ccc(CNC(=O)CSc2nc3ccccc3cc2-c2nc3ccccc3c(=O)[nH]2)cc1 [9o, N-(4-Methylbenzyl)-2-{[3-(4-oxo-3,4-dihydroquinazolin-2-yl)quinolin-2-yl]thio}acetamide] | – | > 750 | 202 to 204 | –
O=C(CSc1nc2ccccc2cc1-c1nc2ccccc2c(=O)[nH]1)NCc1ccc(F)cc1 [9p, N-(4-Fluorobenzyl)-2-{[3-(4-oxo-3,4-dihydroquinazolin-2-yl)quinolin-2-yl]thio}acetamide] | – | > 750 | 205 to 207 | –
O=C(O)c1ccc2ccccc2n1 [Compound A] | – | – | – | fold more potent than acarbose (α-glucosidase [3]): 7.3 fold; IC50 (α-glucosidase [4]): 9.1 ± 2.3 µM
O=c1[nH]c(-c2ccc(Cl)cc2)nc2ccccc12 [Compound B] | – | – | – | IC50 (α-glucosidase [5]): 12.5 ± 0.1 µM
